Assay [1] relates to Streptococcus pneumoniae. Description: Minimum inhibitory concentration against Streptococcus pneumoniae OC4421.
Assay [2] concerns Mus musculus. Put plainly: Effective dose against Staphylococcus aureus infected murine was tested after subcutaneous injection. The class given is functional. As to conditions: sc.
For assay [3], the system named is Staphylococcus haemolyticus. Put plainly: Minimum inhibitory concentration against Staphylococcus haemolyticus OC4545.
Assay [4] relates to Streptococcus pneumoniae. Description: Minimum inhibitory concentration against Streptococcus pneumoniae OC4051.
Assay [5] deals with Mus musculus. Description: Percent survival of Staphylococcus aureus infected murine was tested after subcutaneous injection of 10 mg/kg dose. The assay is classed as functional. As to conditions: sc.
Assay [6] concerns Staphylococcus haemolyticus. Description: Minimum inhibitory concentration against Staphylococcus haemolyticus OC3882.
The test system of assay [7] is Staphylococcus aureus. Put plainly: Minimum inhibitory concentration against Staphylococcus aureus OC4172. The class given is functional.
Assay [8] concerns Streptococcus pneumoniae. Description: Minimum inhibitory concentration against Streptococcus pneumoniae OC9132.
The next assay concerns Haemophilus influenzae. Description: Minimum inhibitory concentration against Haemophilus influenzae OC4482.
The species named for assay [9] is Mus musculus. Description: Effective dose against Staphylococcus aureus infected murine was tested after peroral injection. The class given is functional.
Assay [10] concerns Mus musculus. Description: Percent survival of Staphylococcus aureus infected murine was tested after peroral injection of 20 mg/kg dose. As to conditions: route oral. The class given is functional.
In assay [11] the test system is Staphylococcus aureus. Description: Minimum inhibitory concentration against Staphylococcus aureus OC4172 in presence of mouse serum. The assay is classed as functional.

In brackets after ≈: the same amount, converted by molar mass.

The term ED50 denotes the midpoint of the dose-response relation. Higher therefore signals weaker potency. For the compound `CC[C@H]1OC(=O)C(C)C(=O)[C@H](C)[C@@H](O[C@@H]2O[C@H](C)C[C@H](N(C)C)[C@H]2O)[C@](C)(OC(=O)N/C=C/c2ccc(-c3cnccn3)cc2)C[C@@H](C)C(=O)[C@H](C)[C@H]2NC(=O)O[C@@]21C` (some centres undefined), the MIC is 0.12 µg/mL (≈ 0.146 µM) in the assay with Streptococcus pneumoniae [1]; more than 16 µg/mL in [3]; 0.06 µg/mL (≈ 0.073 µM) against Streptococcus pneumoniae [4]; 0.25 µg/mL (≈ 0.304 µM) in assay [6]; 0.12 µg/mL (≈ 0.146 µM) in the assay on Staphylococcus aureus [7]; 0.03 µg/mL (≈ 0.0365 µM) against Streptococcus pneumoniae [8]. Also, the MIC against Haemophilus influenzae is 4 µg/mL (≈ 4.87 µM); with Staphylococcus aureus [11], 0.25 µg/mL. For the same compound, the median effective dose (ED50) amounted to 4.8 mg/kg in the assay on Mus musculus [2] and 17 mg/kg in the assay filed under Mus musculus [9]. In the assay on Mus musculus [5], this compound yielded a survival at 10 mg/kg of 100%. In addition, the survival at 20 mg/kg in the assay with Mus musculus [10] was 62%.

In the case of `CC[C@H]1OC(=O)C(C)C(=O)[C@H](C)[C@@H](O[C@@H]2O[C@H](C)C[C@H](N(C)C)[C@H]2O)[C@](C)(OC(=O)N/C=C/c2ccc(-c3ncccn3)cc2)C[C@@H](C)C(=O)[C@H](C)[C@H]2NC(=O)O[C@@]21C` (some centres undefined), the MIC was 0.06 µg/mL (≈ 0.073 µM) against Streptococcus pneumoniae [1]; more than 16 µg/mL in assay [3]; 0.06 µg/mL (≈ 0.073 µM) against Streptococcus pneumoniae [4]; 0.12 µg/mL (≈ 0.146 µM) in assay [6]; 0.12 µg/mL (≈ 0.146 µM) in the assay with Staphylococcus aureus [7]; 0.03 µg/mL (≈ 0.0365 µM) in the assay on Streptococcus pneumoniae [8]. For the same compound, the MIC in the assay on Haemophilus influenzae worked out at 4 µg/mL (≈ 4.87 µM); in the assay with Staphylococcus aureus [11], 0.25 µg/mL. The values for the ED50 in the assay with Mus musculus [2] and in the assay filed under Mus musculus [9] were 1.8 mg/kg and 15 mg/kg, respectively. The survival at 10 mg/kg in the assay on Mus musculus [5] worked out at 100%. In addition, the survival at 20 mg/kg with Mus musculus [10] was 40%.

These data come from ChEMBL document CHEMBL1137031, “Synthesis and antibacterial activity of C-6 carbamate ketolides, a novel series of orally active ketolide antibiotics” (2004).
